# Experimental data from patent US20230276831A1, “Food/Beverage Article” (Kikkoman Corporation, priority 2020, published 2023).
# System: Lactobacillus rennini (DSM 20253)
# Experiment: Antimicrobial action of licoricidin in soy sauce at various pH (Test Example 5)
# Format: cell-based
# Design: key: A: The bacterial count decreases to less than 10% of the bacterial count of the control group.; B: The bacterial count decreases to 10% or more and less than 50% of the bacterial count of the control group.; C: The bacterial count decreases to 50% or more and less than 100% of the bacterial count of control group.; D: The bacterial count is the same as the bacterial count of the control group
# Procedure: Commercially available whole soybean soy sauce (produced by Kikkoman Corporation) was electrodialyzed and then concentrated under reduced pressure to obtain soy sauce at a salt concentration of 0% (w/v) and an alcohol concentration of 0% (v/v). Then, salt and/or alcohol was added to the above-mentioned obtained soy sauce, and hydrochloric acid or an aqueous sodium hydroxide solution was then added to adjust the pH to a desired pH. Germfree purified water was added, and the mixture was then heat-treated to produce soy sauce at the salt concentration, the alcohol concentration, and the pH shown in the following Table 17.
# Licoricidin (produced by ChemFaces) was added to each of the obtained soy sauces to concentrations of 1 ppm, 5 ppm, 10 ppm, 25 ppm, and 50 ppm. Lactic acid bacteria (Lactobacillus rennini (DSM 20253)) were then added to 10^6 to 10^7 cells/mL and cultured at 30° C. for 7 days. After the culture, the number of lactic acid bacteria was measured using the GAM agar medium “Nissui”. Soy sauce to which licoricidin was not added was used as a control group, and the antimicrobial activity was evaluated in comparison with the number of lactic acid bacteria in the control group. The evaluation was performed using the same criterion as in Test Example 4.
compound,measurement,setting,value
"COc1c(CC=C(C)C)c(O)cc2c1C[C@H](c1ccc(O)c(CC=C(C)C)c1O)CO2 [Licoricidin, 4-[(R)-7-hydroxy-5-methoxy-6-(3-methyl-2-butenyl)chroman-3-yl]-2-(3-methyl-2-butenyl)-1,3-benzenediol]",Antimicrobial activity,"salt 0% (w/v), pH 4.2, alcohol 0% (v/v), licoricidin 1 ppm",B (The bacterial count decreases to 10% or more and less than 50% of the bacterial count of the control group.)
same,Antimicrobial activity,"salt 0% (w/v), pH 4.2, alcohol 0% (v/v), licoricidin 5 ppm",B (The bacterial count decreases to 10% or more and less than 50% of the bacterial count of the control group.)
same,Antimicrobial activity,"salt 0% (w/v), pH 4.2, alcohol 0% (v/v), licoricidin 10 ppm",A (The bacterial count decreases to less than 10% of the bacterial count of the control group.)
same,Antimicrobial activity,"salt 0% (w/v), pH 4.2, alcohol 0% (v/v), licoricidin 25 ppm",A (The bacterial count decreases to less than 10% of the bacterial count of the control group.)
same,Antimicrobial activity,"salt 0% (w/v), pH 4.2, alcohol 0% (v/v), licoricidin 50 ppm",A (The bacterial count decreases to less than 10% of the bacterial count of the control group.)
same,Antimicrobial activity,"salt 0% (w/v), pH 4.2, alcohol 5% (v/v), licoricidin 1 ppm",B (The bacterial count decreases to 10% or more and less than 50% of the bacterial count of the control group.)
same,Antimicrobial activity,"salt 0% (w/v), pH 4.2, alcohol 5% (v/v), licoricidin 5 ppm",A (The bacterial count decreases to less than 10% of the bacterial count of the control group.)
same,Antimicrobial activity,"salt 0% (w/v), pH 4.2, alcohol 5% (v/v), licoricidin 10 ppm",A (The bacterial count decreases to less than 10% of the bacterial count of the control group.)
same,Antimicrobial activity,"salt 0% (w/v), pH 4.2, alcohol 5% (v/v), licoricidin 25 ppm",A (The bacterial count decreases to less than 10% of the bacterial count of the control group.)
same,Antimicrobial activity,"salt 0% (w/v), pH 4.2, alcohol 5% (v/v), licoricidin 50 ppm",A (The bacterial count decreases to less than 10% of the bacterial count of the control group.)
same,Antimicrobial activity,"salt 0% (w/v), pH 4.6, alcohol 0% (v/v), licoricidin 1 ppm",C (The bacterial count decreases to 50% or more and less than 100% of the bacterial count of control group.)
same,Antimicrobial activity,"salt 0% (w/v), pH 4.6, alcohol 0% (v/v), licoricidin 5 ppm",B (The bacterial count decreases to 10% or more and less than 50% of the bacterial count of the control group.)
same,Antimicrobial activity,"salt 0% (w/v), pH 4.6, alcohol 0% (v/v), licoricidin 10 ppm",A (The bacterial count decreases to less than 10% of the bacterial count of the control group.)
same,Antimicrobial activity,"salt 0% (w/v), pH 4.6, alcohol 0% (v/v), licoricidin 25 ppm",A (The bacterial count decreases to less than 10% of the bacterial count of the control group.)
same,Antimicrobial activity,"salt 0% (w/v), pH 4.6, alcohol 0% (v/v), licoricidin 50 ppm",A (The bacterial count decreases to less than 10% of the bacterial count of the control group.)
same,Antimicrobial activity,"salt 0% (w/v), pH 4.6, alcohol 5% (v/v), licoricidin 1 ppm",C (The bacterial count decreases to 50% or more and less than 100% of the bacterial count of control group.)
same,Antimicrobial activity,"salt 0% (w/v), pH 4.6, alcohol 5% (v/v), licoricidin 5 ppm",A (The bacterial count decreases to less than 10% of the bacterial count of the control group.)
same,Antimicrobial activity,"salt 0% (w/v), pH 4.6, alcohol 5% (v/v), licoricidin 10 ppm",A (The bacterial count decreases to less than 10% of the bacterial count of the control group.)
same,Antimicrobial activity,"salt 0% (w/v), pH 4.6, alcohol 5% (v/v), licoricidin 25 ppm",A (The bacterial count decreases to less than 10% of the bacterial count of the control group.)
same,Antimicrobial activity,"salt 0% (w/v), pH 4.6, alcohol 5% (v/v), licoricidin 50 ppm",A (The bacterial count decreases to less than 10% of the bacterial count of the control group.)
same,Antimicrobial activity,"salt 0% (w/v), pH 5.0, alcohol 0% (v/v), licoricidin 1 ppm",D
same,Antimicrobial activity,"salt 0% (w/v), pH 5.0, alcohol 0% (v/v), licoricidin 5 ppm",B (The bacterial count decreases to 10% or more and less than 50% of the bacterial count of the control group.)
same,Antimicrobial activity,"salt 0% (w/v), pH 5.0, alcohol 0% (v/v), licoricidin 10 ppm",B (The bacterial count decreases to 10% or more and less than 50% of the bacterial count of the control group.)
same,Antimicrobial activity,"salt 0% (w/v), pH 5.0, alcohol 0% (v/v), licoricidin 25 ppm",A (The bacterial count decreases to less than 10% of the bacterial count of the control group.)
same,Antimicrobial activity,"salt 0% (w/v), pH 5.0, alcohol 0% (v/v), licoricidin 50 ppm",A (The bacterial count decreases to less than 10% of the bacterial count of the control group.)
same,Antimicrobial activity,"salt 0% (w/v), pH 5.0, alcohol 5% (v/v), licoricidin 1 ppm",C (The bacterial count decreases to 50% or more and less than 100% of the bacterial count of control group.)
same,Antimicrobial activity,"salt 0% (w/v), pH 5.0, alcohol 5% (v/v), licoricidin 5 ppm",B (The bacterial count decreases to 10% or more and less than 50% of the bacterial count of the control group.)
same,Antimicrobial activity,"salt 0% (w/v), pH 5.0, alcohol 5% (v/v), licoricidin 10 ppm",B (The bacterial count decreases to 10% or more and less than 50% of the bacterial count of the control group.)
same,Antimicrobial activity,"salt 0% (w/v), pH 5.0, alcohol 5% (v/v), licoricidin 25 ppm",A (The bacterial count decreases to less than 10% of the bacterial count of the control group.)
same,Antimicrobial activity,"salt 0% (w/v), pH 5.0, alcohol 5% (v/v), licoricidin 50 ppm",A (The bacterial count decreases to less than 10% of the bacterial count of the control group.)
same,Antimicrobial activity,"salt 0% (w/v), pH 5.4, alcohol 0% (v/v), licoricidin 1 ppm",D
same,Antimicrobial activity,"salt 0% (w/v), pH 5.4, alcohol 0% (v/v), licoricidin 5 ppm",D
same,Antimicrobial activity,"salt 0% (w/v), pH 5.4, alcohol 0% (v/v), licoricidin 10 ppm",C (The bacterial count decreases to 50% or more and less than 100% of the bacterial count of control group.)
same,Antimicrobial activity,"salt 0% (w/v), pH 5.4, alcohol 0% (v/v), licoricidin 25 ppm",C (The bacterial count decreases to 50% or more and less than 100% of the bacterial count of control group.)
same,Antimicrobial activity,"salt 0% (w/v), pH 5.4, alcohol 0% (v/v), licoricidin 50 ppm",C (The bacterial count decreases to 50% or more and less than 100% of the bacterial count of control group.)
same,Antimicrobial activity,"salt 0% (w/v), pH 5.4, alcohol 5% (v/v), licoricidin 1 ppm",B (The bacterial count decreases to 10% or more and less than 50% of the bacterial count of the control group.)
same,Antimicrobial activity,"salt 0% (w/v), pH 5.4, alcohol 5% (v/v), licoricidin 5 ppm",A (The bacterial count decreases to less than 10% of the bacterial count of the control group.)
same,Antimicrobial activity,"salt 0% (w/v), pH 5.4, alcohol 5% (v/v), licoricidin 10 ppm",A (The bacterial count decreases to less than 10% of the bacterial count of the control group.)
same,Antimicrobial activity,"salt 0% (w/v), pH 5.4, alcohol 5% (v/v), licoricidin 25 ppm",A (The bacterial count decreases to less than 10% of the bacterial count of the control group.)
same,Antimicrobial activity,"salt 0% (w/v), pH 5.4, alcohol 5% (v/v), licoricidin 50 ppm",A (The bacterial count decreases to less than 10% of the bacterial count of the control group.)
same,Antimicrobial activity,"salt 0% (w/v), pH 5.8, alcohol 0% (v/v), licoricidin 1 ppm",D
same,Antimicrobial activity,"salt 0% (w/v), pH 5.8, alcohol 0% (v/v), licoricidin 5 ppm",D
same,Antimicrobial activity,"salt 0% (w/v), pH 5.8, alcohol 0% (v/v), licoricidin 10 ppm",D
same,Antimicrobial activity,"salt 0% (w/v), pH 5.8, alcohol 0% (v/v), licoricidin 25 ppm",D
same,Antimicrobial activity,"salt 0% (w/v), pH 5.8, alcohol 0% (v/v), licoricidin 50 ppm",D
same,Antimicrobial activity,"salt 0% (w/v), pH 5.8, alcohol 5% (v/v), licoricidin 1 ppm",B (The bacterial count decreases to 10% or more and less than 50% of the bacterial count of the control group.)
same,Antimicrobial activity,"salt 0% (w/v), pH 5.8, alcohol 5% (v/v), licoricidin 5 ppm",A (The bacterial count decreases to less than 10% of the bacterial count of the control group.)
same,Antimicrobial activity,"salt 0% (w/v), pH 5.8, alcohol 5% (v/v), licoricidin 10 ppm",A (The bacterial count decreases to less than 10% of the bacterial count of the control group.)
same,Antimicrobial activity,"salt 0% (w/v), pH 5.8, alcohol 5% (v/v), licoricidin 25 ppm",A (The bacterial count decreases to less than 10% of the bacterial count of the control group.)
same,Antimicrobial activity,"salt 0% (w/v), pH 5.8, alcohol 5% (v/v), licoricidin 50 ppm",A (The bacterial count decreases to less than 10% of the bacterial count of the control group.)
same,Antimicrobial activity,"salt 4% (w/v), pH 4.2, alcohol 0% (v/v), licoricidin 1 ppm",B (The bacterial count decreases to 10% or more and less than 50% of the bacterial count of the control group.)
same,Antimicrobial activity,"salt 4% (w/v), pH 4.2, alcohol 0% (v/v), licoricidin 5 ppm",A (The bacterial count decreases to less than 10% of the bacterial count of the control group.)
same,Antimicrobial activity,"salt 4% (w/v), pH 4.2, alcohol 0% (v/v), licoricidin 10 ppm",A (The bacterial count decreases to less than 10% of the bacterial count of the control group.)
same,Antimicrobial activity,"salt 4% (w/v), pH 4.2, alcohol 0% (v/v), licoricidin 25 ppm",A (The bacterial count decreases to less than 10% of the bacterial count of the control group.)
same,Antimicrobial activity,"salt 4% (w/v), pH 4.2, alcohol 0% (v/v), licoricidin 50 ppm",A (The bacterial count decreases to less than 10% of the bacterial count of the control group.)
